{
  "source": "patent US20240238426A1",
  "about": "“PROTEIN ACYLATION MODULATION BY HETEROBIFUNCTIONAL MOLECULES” (THE SCRIPPS RESEARCH INSTITUTE, priority 2021, published 2024)",
  "key": {"[1]": {"target": "T1, FKBP12^F36V (Homo sapiens, UniProt P62942, F37V)", "T1 construct": "expressed in transfected cells; host or cells: HEK293T (transient)", "T1 sequence (P62942 2-108 F37V limits assumed)": "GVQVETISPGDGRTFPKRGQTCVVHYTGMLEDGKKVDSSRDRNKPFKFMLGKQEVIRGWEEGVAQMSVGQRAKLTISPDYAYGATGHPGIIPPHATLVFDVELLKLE", "experiment": "AceTAG-1 target engagement: FKBP-p photo-crosslinking probe competition in HEK293T cells", "type": "cell-based", "settings": "0.5 μM FKBP-p probe, increasing concentrations of AceTAG-1, 30 min, FIG. 3E", "method": "AceTAG-1 Target Engagement: At 50%-70% confluency, HEK293t cells in 6-well plates were transfected with pLEX305-C-dTAG-H3.3. After 24 h, cells were co-treated for 30 min with 0.5 μM FKBP-p probe and increasing concentration of AceTAG-1 in serum-free DMEM media. Cells then underwent UV-photocrosslinking (365 nm) for 20 min at 4° C., harvested in cold DPBS by scraping and centrifugation, cell pellets were washed with cold DPBS two times and aspirated. Cells were then lysed in 400 μL DPBS buffer supplemented with 0.2% SDS (w/v) and 1X Halt protease inhibitor cocktail. Lysate was then normalized to 1.5 mg/mL. […] Proteins (25 μg total protein loaded per gel lane) were resolved using SDS-PAGE (10% acrylamide) and visualized by in-gel fluorescence on Bio-Rad ChemiDoc MP Imaging System. Gel fluorescence and imaging was processed using Image Lab (v 6.0.1) software. […] Chemiluminescence was recorded with Bio-Rad ChemiDoc MP Imaging System and processed using Image Lab (v 6.0.1) software."}, "[2]": {"test_system": "p21", "experiment": "Immunoblot of p21 expression in p53 H1299 cells without the FKBP12^F36V tag", "type": "cell-based, Human", "settings": "indicated doses, 8 hr, FIG. 7D", "method": "(§1) Immunoblotting: Cells were harvested in cold DPBS by scraping and washed with cold DPBS twice. Cell pellets were resuspended in DPBS supplemented with 5 mM sodium butyrate, 20 mM Nicotinamide, and 1X Halt Protease Inhibitor Cocktail and lysed by sonication (15 ms on, 40 ms off, 15% amplitude, 1s total on x 3). Protein concentration was determined using DC Protein Assay (Bio-Rad) and absorbance read using a CLARIOstar plate reader following manufacturer's instructions. Samples with equal protein content were boiled in 4X SDS gel loading buffer for 10 min. Proteins were separated by 10%, 12.5%, or 15% SDS-polyacrylamide gel electrophoresis and transferred to PVDF membranes using Trans-Blot Turbo RTA Mini […] LF PVDF Transfer Kit (Bio-Rad). Membranes were incubated for 1 h at room temperature with blocking buffer, followed by incubating overnight at 4° C. with primary antibodies. After washing in TBST, the secondary antibodies were incubated with the membranes at room temperature for 1 h. The membranes were washed with TBST for three times and visualized on a Bio-Rad ChemiDoc MP Imaging System with Clarity Max Western ECL substrate (Bio-Rad) or SuperSignal West Femto Chemiluminescent substrate proprietary luminol and peroxide solution kit (Thermo Scientific Pierce)."}, "[3]": {"test_system": "TP53 target genes", "experiment": "RNA-seq analysis of H1299 wt cells", "type": "cell-based, Human", "settings": "3 μM AceTAG-1, FIG. 7F"}, "[4]": {"test_system": "T2, FKBP12^F36V-p53 (Homo sapiens, F37V)", "T2 construct": "expressed in transfected cells", "T2 sequence (P62942 2-108 F37V limits assumed)": "as above", "T2 sequence (Q09472 2-2414 limits assumed, stated change not applied, further chain)": "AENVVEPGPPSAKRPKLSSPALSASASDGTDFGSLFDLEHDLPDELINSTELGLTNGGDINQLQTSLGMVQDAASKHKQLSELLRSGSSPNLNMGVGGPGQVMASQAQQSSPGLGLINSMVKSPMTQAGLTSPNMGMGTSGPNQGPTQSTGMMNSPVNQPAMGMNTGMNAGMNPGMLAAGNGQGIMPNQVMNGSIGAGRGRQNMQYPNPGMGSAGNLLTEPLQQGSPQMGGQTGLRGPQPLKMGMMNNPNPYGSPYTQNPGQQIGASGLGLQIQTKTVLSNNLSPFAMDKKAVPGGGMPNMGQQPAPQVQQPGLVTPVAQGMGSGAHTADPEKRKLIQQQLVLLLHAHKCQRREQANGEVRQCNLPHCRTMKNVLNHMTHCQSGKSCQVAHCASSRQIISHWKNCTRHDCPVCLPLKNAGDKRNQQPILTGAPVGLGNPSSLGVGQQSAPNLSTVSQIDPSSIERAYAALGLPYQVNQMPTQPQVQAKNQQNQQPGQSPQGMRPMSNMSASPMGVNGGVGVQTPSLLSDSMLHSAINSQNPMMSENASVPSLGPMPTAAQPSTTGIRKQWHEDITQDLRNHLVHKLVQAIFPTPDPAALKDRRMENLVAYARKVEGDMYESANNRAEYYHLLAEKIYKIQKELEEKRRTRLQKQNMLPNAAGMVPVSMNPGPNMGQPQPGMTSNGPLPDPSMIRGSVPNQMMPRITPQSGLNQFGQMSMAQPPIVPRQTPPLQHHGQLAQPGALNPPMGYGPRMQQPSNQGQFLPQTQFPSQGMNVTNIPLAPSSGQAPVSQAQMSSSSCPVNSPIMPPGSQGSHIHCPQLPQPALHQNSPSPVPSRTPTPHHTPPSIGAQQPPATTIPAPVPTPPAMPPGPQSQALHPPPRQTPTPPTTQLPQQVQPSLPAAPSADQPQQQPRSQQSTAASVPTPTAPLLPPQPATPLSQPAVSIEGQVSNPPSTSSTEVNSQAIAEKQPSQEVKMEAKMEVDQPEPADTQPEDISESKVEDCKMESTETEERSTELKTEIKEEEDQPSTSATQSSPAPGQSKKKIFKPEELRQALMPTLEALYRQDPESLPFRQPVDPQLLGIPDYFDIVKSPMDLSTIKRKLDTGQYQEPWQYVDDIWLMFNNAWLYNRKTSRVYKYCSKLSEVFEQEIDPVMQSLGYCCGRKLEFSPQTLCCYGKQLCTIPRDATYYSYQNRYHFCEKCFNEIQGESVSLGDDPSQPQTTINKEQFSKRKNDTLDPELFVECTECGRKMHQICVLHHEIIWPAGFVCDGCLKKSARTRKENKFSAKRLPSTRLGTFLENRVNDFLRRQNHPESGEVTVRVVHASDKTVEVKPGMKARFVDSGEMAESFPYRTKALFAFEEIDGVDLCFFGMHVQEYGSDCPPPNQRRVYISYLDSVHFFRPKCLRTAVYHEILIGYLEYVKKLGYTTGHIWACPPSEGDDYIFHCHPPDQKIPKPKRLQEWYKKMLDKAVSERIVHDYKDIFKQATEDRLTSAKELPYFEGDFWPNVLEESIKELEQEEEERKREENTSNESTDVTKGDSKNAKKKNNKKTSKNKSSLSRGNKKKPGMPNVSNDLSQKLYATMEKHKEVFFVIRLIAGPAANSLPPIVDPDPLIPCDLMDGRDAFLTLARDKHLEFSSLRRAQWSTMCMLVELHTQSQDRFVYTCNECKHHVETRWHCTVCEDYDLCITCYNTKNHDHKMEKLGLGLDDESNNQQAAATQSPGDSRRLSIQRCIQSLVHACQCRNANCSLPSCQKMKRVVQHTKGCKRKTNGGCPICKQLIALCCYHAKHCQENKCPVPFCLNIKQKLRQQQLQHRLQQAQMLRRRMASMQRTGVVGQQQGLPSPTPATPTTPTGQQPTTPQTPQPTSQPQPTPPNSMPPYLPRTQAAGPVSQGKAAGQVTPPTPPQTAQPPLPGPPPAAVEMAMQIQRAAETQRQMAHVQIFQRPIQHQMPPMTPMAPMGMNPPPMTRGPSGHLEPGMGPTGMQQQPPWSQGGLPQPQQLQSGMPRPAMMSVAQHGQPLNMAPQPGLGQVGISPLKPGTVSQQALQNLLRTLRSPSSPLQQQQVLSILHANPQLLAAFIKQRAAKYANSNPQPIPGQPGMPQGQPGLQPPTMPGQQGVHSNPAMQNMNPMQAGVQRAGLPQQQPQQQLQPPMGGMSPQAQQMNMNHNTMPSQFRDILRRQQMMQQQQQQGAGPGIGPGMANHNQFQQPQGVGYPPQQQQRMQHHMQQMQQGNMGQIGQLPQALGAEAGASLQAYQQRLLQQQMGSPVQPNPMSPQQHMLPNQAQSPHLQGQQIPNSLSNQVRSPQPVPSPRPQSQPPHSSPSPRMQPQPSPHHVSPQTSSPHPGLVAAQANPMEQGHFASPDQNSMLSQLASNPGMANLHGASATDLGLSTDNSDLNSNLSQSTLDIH", "experiment": "Immunoblot analysis of FKBP12^F36V-p53 acetylation in H1299 cells", "type": "cell-based", "method": "(§2) Lentivirus Production and Transduction: Lentiviral production was performed using HEK293T cells, which were co-transfected with pMD2.G (Addgene, #12259), psPAX2 (Addgene, #12260), and AceTAG lentiviral plasmids using PEI (Polysciences Inc). Viral particles were collected 72 h after transfection and filtered through a […] membrane. A range of dilutions of the lentivirus in DMEM complete and 10 μg/mL polybrene were added to HeLa, H1299, or HeLa RelA KO cell lines. Transduced cells were selected with 1 μg/mL or 2 μg/mL puromycin.\nas §1"}, "[5]": {"test_system": "p300/CBP substrates, including c-Myc and STAT3", "experiment": "Immunoblot of acetylation of other p300/CBP substrates in HeLa cells", "type": "cell-based, Human", "settings": "increasing concentration", "method": "as §1"}, "[6]": {"test_system": "T3, FKBP12^F36V-RelA (Homo sapiens, F37V)", "T3 construct": "expressed in transfected cells", "T3 sequence (P62942 2-108 F37V limits assumed)": "as the sequence (P62942 2-108 F37V limits assumed) above", "T3 sequence (Q09472 2-2414 limits assumed, stated change not applied, further chain)": "as the sequence (Q09472 2-2414 limits assumed, stated change not applied, further chain) above", "experiment": "Immunoblot analysis of FKBP12^F36V-RelA acetylation in RelA-/- HeLa cells", "type": "cell-based", "method": "as §2, §1"}},
  "data": [
    {"smiles": "CC[C@H](C(=O)N1CCCC[C@H]1C(=O)O[C@H](CCc1ccc(OC)c(OC)c1)c1cccc(OCC(=O)NCCOCCOCCC(=O)NCCOc2ccc(CCc3nc4cc(-c5c(C)noc5C)ccc4n3CCN3CCOCC3)cc2)c1)c1cc(OC)c(OC)c(OC)c1", "note": "[AceTAG-1, (R)-3-(3,4-dimethoxyphenyl)-1-(3-((15-(4-(2-(5-(3,5-dimethylisoxazol-4-yl)-1-(2-morpholinoethyl)-1H-benzo[d]imidazol-2-yl)ethyl)phenoxy)-2,12-dioxo-6,9-dioxa-3,13-diazapentadecyl)oxy)phenyl)propyl (S)-1-((S)-2-(3,4,5-trimethoxyphenyl)butanoyl)piperidine-2-carboxylate]", "values": [
      {"measurement": "competition of FKBP-p probe binding to FKBP12^F36V", "setting": "[1]", "value": "efficiently competed"},
      {"measurement": "p21 induction in H1299 cells expressing p53 without the FKBP12^F36V tag", "setting": "[2]", "value": "not observed"},
      {"measurement": "changes of TP53 target genes in H1299 wt cells", "setting": "[3]", "value": "minimal changes"},
      {"measurement": "p53 acetylation at higher AceTAG-1 concentrations", "setting": "[4]; FIG. 6C", "value": "apparent acetylation autoinhibition"},
      {"measurement": "treatment time after which a significant level of p53 acetylation is detectable", "setting": "[4]; FIG. 9E", "value": "~10", "unit": "min"},
      {"measurement": "p53 acetylation at K305, K373, and K382", "setting": "[4]; indicated doses, 2 hr, FIG. 6C", "value": "strong AceTAG-1-dependent acetylation"},
      {"measurement": "acetylation of c-Myc and STAT3", "setting": "[5]; FIG. 5B", "value": "no observable acetylation changes"},
      {"measurement": "broader acetylation perturbation (acetylated lysine immunoblot)", "setting": "[5]; FIG. 5C", "value": "no observable acetylation changes"},
      {"measurement": "RelA acetylation at higher AceTAG-1 concentrations", "setting": "[6]; FIG. 6A", "value": "apparent acetylation autoinhibition"},
      {"measurement": "RelA acetylation at neighboring K314/315", "setting": "[6]; FIG. 9D", "value": "minimal effects"},
      {"measurement": "RelA acetylation at K310", "setting": "[6]; indicated doses, 2 hr, FIG. 6A", "value": "dose-dependent acetylation"}
    ]}
  ]
}
